The text below walks through data of US5705487A, “Antithrombotic agents” (priority 1995, dated 1998).

Data set [1] concerns Human Plasma. Description: Human plasma anticoagulation, thrombin time (TT). The format is biochemical. The following applies: concentration required to double the clotting time. In a few lines:
(§1)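 Test compounds are added to human plasma at many concentrations. Clotting is then initiated by reagent (Thromboplastin-C for PT; Actin for 120 s followed by 0.02M calcium chloride for APTT; 10 NIH units/mL bovine thrombin for TT) and timed instrumentally. The concentration giving twofold prolongation is derived by linear extrapolation.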

A short description of data set [2]: Arterio-Venous shunt model. The format is in vivo, rat. The following applies: during infusion reducing thrombus weight to approximately 20% of control. How it is done: The left jugular vein and right carotid artery are cannulated with 20 cm lengths of polyethylene PE 60 tubing. A 6 cm center section of larger tubing (PE 190) with a cotton thread (5 cm) in the lumen, is friction fitted between the longer sections to complete the arterio-venous shunt circuit. Blood circulated through the shunt for 15 minutes before the thread is carefully removed and weighed. The weight of a wet thread is subtracted from the total weight of the thread and thrombus (see J. R. Smith, Br. J. Pharmacol., 77,29 (1982)).
Assays are done in duplicate and averaged.

The conditions of data set [3]: Simoons et al., Circulation, 90, I-231 (1994); cited from earlier work.
The target in another data set is T1, Human plasmin (Homo sapiens, UniProt P00747).
T1 construct: Human plasmin is purchased from Boehringer Mannheim; purchased Boehringer Mannheim, Indianapolis, Ind
Nature of the data set: Kass, plasmin chromogenic substrate assay. The following applies: substrate H-D-Val-Leu-Lys-p-nitroanilide. The format is biochemical.

The target of a further data set is T2, t-PA (Homo sapiens, UniProt P00750).
T2 construct: purchased American Diagnostica, Greenwich, Conn
Nature of the data set: Kass, t-PA chromogenic substrate assay. It is filed as biochemical. The settings on record: substrate H-D-Ile-Pro-Arg-p-nitroanilide.

A further data set has as its target Human Thrombin (Homo sapiens, UniProt P00734). Nature of the data set: Inhibition of the amidase activity of thrombin (Kass). It is filed as biochemical. The following applies: chromogenic substrate N-benzoyl-Phe-Val-Arg-p-nitroanilide; mean over range of concentrations.
The next data set deals with T3, factor Xa (Homo sapiens, UniProt P00742).
T3 construct: Human factors X, Xa, IXa, XIa, and XIIa are purchased; purchased Enzyme Research Laboratories, South Bend, Ind
Description: Kass, factor Xa chromogenic substrate assay. The format is biochemical. The settings on record: substrate N-Benzoyl-Ile-Glu-Gly-Arg-p-nitroanilide.

Another data set deals with T4, Bovine trypsin (Bos taurus, UniProt P00760).
T4 construct: Bovine trypsin is purchased from Worthington Biochemicals; purchased Worthington Biochemicals, Freehold, N.J
T4 sequence (P00760 24-246): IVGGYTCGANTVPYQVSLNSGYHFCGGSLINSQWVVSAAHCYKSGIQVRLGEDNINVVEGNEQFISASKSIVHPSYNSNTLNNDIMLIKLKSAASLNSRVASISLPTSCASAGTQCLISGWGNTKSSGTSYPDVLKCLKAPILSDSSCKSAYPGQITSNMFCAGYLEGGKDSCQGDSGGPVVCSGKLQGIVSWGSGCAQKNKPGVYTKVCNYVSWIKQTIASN
Description: Kass, trypsin chromogenic substrate assay. It is filed as biochemical. The following applies: substrate N-Benzoyl-Phe-Val-Arg-p-nitroanilide.

The nature of data set [4]: Index of bioavailability (% relative activity from plasma TT, oral vs i.v.). The format is in vivo, rat. The settings on record: AUC of plasma TT time course, p.o. vs i.v. bolus, dose adjusted. The method, then: Parke Davis) at 37° C. […] Assays are done in duplicate and averaged. […] Each sample population represented alternating sequential time points.
The subject of data set [5] is Human Plasma. Description: Human plasma anticoagulation, activated partial thromboplastin time (APTT). The format is biochemical. The settings on record: concentration required to double the clotting time. In a few lines: as §1
In data set [6] the test system is Human Plasma. Nature of the data set: Human plasma anticoagulation, prothrombin time (PT). It is filed as biochemical. The following applies: concentration required to double the clotting time. In a few lines:
as §1

T1 sequence (P00747 581-810 limits assumed): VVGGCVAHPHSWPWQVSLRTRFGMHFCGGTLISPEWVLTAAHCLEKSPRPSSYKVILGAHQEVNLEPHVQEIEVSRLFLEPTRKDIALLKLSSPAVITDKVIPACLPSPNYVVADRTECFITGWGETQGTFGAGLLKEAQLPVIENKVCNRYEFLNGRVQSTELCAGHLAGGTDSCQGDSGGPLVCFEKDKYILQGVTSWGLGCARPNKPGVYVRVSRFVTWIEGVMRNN
T1 sequence (P00747 97-580 partner limits assumed): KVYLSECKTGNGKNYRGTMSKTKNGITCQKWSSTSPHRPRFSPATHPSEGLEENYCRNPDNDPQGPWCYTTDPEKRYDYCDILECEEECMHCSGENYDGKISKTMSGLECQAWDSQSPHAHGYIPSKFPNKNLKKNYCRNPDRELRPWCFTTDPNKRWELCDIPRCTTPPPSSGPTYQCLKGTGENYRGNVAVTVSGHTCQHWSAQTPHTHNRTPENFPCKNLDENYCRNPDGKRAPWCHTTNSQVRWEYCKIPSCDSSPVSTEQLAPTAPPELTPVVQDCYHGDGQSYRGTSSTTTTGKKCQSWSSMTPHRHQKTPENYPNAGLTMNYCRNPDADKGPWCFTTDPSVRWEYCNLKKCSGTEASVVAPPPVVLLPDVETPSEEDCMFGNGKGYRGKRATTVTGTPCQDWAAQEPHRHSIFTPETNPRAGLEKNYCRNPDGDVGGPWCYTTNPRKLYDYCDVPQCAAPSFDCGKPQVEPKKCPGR
T2 sequence (P00750 36-562): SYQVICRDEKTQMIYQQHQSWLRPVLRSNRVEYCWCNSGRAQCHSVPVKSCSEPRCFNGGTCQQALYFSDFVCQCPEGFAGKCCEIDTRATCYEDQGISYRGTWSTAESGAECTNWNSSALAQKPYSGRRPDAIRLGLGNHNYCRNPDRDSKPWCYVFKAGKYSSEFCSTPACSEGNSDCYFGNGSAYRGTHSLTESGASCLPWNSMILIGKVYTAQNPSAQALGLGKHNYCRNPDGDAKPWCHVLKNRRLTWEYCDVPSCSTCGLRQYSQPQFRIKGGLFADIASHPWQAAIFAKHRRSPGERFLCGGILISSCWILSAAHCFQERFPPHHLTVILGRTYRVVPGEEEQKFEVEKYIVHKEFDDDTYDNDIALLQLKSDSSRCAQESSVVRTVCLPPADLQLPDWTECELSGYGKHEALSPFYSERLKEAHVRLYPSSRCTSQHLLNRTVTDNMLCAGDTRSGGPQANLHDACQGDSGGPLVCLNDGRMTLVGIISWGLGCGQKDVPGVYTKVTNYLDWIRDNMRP
T3 sequence (P00742 235-488 limits assumed): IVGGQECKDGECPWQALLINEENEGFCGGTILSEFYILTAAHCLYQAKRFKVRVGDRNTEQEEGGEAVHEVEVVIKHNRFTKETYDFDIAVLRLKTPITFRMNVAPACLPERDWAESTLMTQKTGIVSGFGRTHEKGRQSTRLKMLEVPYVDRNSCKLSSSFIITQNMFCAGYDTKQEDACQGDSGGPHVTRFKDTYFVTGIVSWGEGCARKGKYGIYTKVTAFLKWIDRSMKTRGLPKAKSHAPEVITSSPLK
T3 sequence (P00742 41-179 partner limits assumed): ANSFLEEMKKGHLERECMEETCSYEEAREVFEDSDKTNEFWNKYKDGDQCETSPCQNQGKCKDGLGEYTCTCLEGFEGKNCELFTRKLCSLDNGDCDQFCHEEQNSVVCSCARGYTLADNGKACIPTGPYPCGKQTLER
Description for Bovine trypsin: (§2) By substantially following the procedures described above for human thrombin, and using other human blood coagulation system serine proteases and proteases of the fibrinolytic system with the appropriate chromogenic substrates, identified below, selectivity of the compounds of the present invention with respect to the coagulation factor serine proteases and with respect to the fibrinolytic system serine proteases are evaluated as well as their substantial lack of interference with serine proteases of the fibrinolytic system.
Chromogenic substrates: N-Benzoyl-Ile-Glu-Gly-Arg-p-nitroanilide (for factor Xa); N-Cbz-D-Arg-Gly-Arg-p-nitroanilide (for factor IXa assay as the factor Xa substrate); Pyroglutamyl-Pro-Arg-p-nitroanilide (for Factor XIa and for aPC); H-D-Pro-Phe-Arg-p-nitroanilide (for factor XIIa); and Pyroglutamyl-Gly-Arg-p-nitroanilide (for urokinase); are purchased from KabiVirum, Stockholm, Sweden, or from Midwest Biotech, Fishers, Ind. Bovine trypsin is purchased from Worthington Biochemicals, Freehold, N.J., and human plasma kallikrein from Kabi Vitrum, Stockholm, Sweden. […] N-Benzoyl-Phe-Val-Arg-p-nitroanilide, the substrate for human thrombin and for trypsin, is synthesized according to procedures described above for the compounds of the present invention, using known methods of peptide coupling from commercially available reactants or purchased from Midwest Biotech, Fishers, Ind.
Description for Human plasmin: as §2
(§3) Human plasmin is purchased from Boehringer Mannheim, Indianapolis, Ind.; nt-PA is purchased as single chain activity reference from American Diagnostica, Greenwich, Conn.; modified-t-PA6 (mt-PA6) is prepared at Eli Lilly and Company by procedure known in the art (See, Burck, et al., J. Biol. Chem., 265, 5120-5177 (1990). Plasmin chromogenic substrate H-D-Val-Leu-Lys-p-nitroanilide and tissue plasminogen activator (t-PA) substrate H-D-Ile-Pro-Arg-p-nitroanilide are purchased from Kabi Vitrum, Stockholm, Sweden.
Description for t-PA: as §2, §3

For the compound `Cl.N=C(N)c1ccc(CNC(=O)[C@@H]2CCCN2C(=O)[C@@H](CC2CCCCC2)NCC(=O)O)cc1` [Example 48, HOOCCH2 -D-Cha-Pro-p-NHCH2 C6 H4 C(NH)NH2.HCl], the “Human Plasma Anticoagulation 2x Clotting time TT” value in the data set with Human Plasma [1] is listed as 2. ng/mL. Also, in [2], the PTT extended result was “about 120 % of control”.
In the case of `CN[C@H](Cc1ccccc1)C(=O)N1CCC[C@H]1C(=O)N[C@H](C=O)CCCNC(=N)N.O=S(=O)(O)O` [D-MePhe-Pro-Arg-H sulfate], in data set [3], the anticoagulant in man entry is reported as “is an anticoagulant in man”.
For the compound `Cl.Cl.Cl.N=C(N)c1ccc(CNC(=O)[C@@H]2C[C@@H]3CCCC[C@@H]3N2C(=O)[C@H]2CCCCN2)cc1` (relative stereo) [Example 20, D-hPro-Ohi-p-NHCH2 C6 H4 C(NH)NH2.3HCl], the “Kass × 10^6 (L/mole) Plasmin” value at Human plasmin is recorded as 0.10 × 10^6 L/mole. Further, the “Kass × 10^6 (L/mole) t-PA” value on t-PA is 0.0077 × 10^6 L/mole. Further, the “Kass × 10^6 (L/mole) Human Thrombin” value on Human Thrombin was 10 × 10^6 L/mole. For the same compound, in the data set with Human Plasma [1], the “Human Plasma Anticoagulation 2x Clotting time TT” value is 62 ng/mL. At factor Xa, the “Kass × 10^6 (L/mole) Xa” value is 0.10 × 10^6 L/mole. Moreover, the “Kass × 10^6 (L/mole) Trypsin” value at Bovine trypsin was 19 × 10^6 L/mole. The “% oral/i.v. activity (Rat)” value in [4] is given as 23%. For the same compound, the “Human Plasma Anticoagulation 2x Clotting time APTT” value in the data set on Human Plasma [5] is recorded as 550 ng/mL. Moreover, the “Human Plasma Anticoagulation 2x Clotting time PT” value in the data set on Human Plasma [6] is given as 600 ng/mL.
Turning to `Cl.N=C(N)c1ccc(CNC(=O)[C@@H]2CCCN2C(=O)[C@@H](CC2CCCCC2)NCCC(=O)O)cc1` [Example 52, HOOCCH2 CH2 -D-Cha-Pro-p-NHCH2 C6 H4 C(NH)NH2.HCl], the “Kass × 10^6 (L/mole) Plasmin” value at Human plasmin is 0.11 × 10^6 L/mole. Also, the “Kass × 10^6 (L/mole) t-PA” value at t-PA is on record as 0.01 × 10^6 L/mole. For the same compound, the “Kass × 10^6 (L/mole) Human Thrombin” value at Human Thrombin was 700 × 10^6 L/mole. For the same compound, the “Human Plasma Anticoagulation 2x Clotting time TT” value in the data set with Human Plasma [1] is 6 ng/mL. Further, on factor Xa, the “Kass × 10^6 (L/mole) Xa” value was 0.46 × 10^6 L/mole. Moreover, the “Kass × 10^6 (L/mole) Trypsin” value at Bovine trypsin is recorded as 47. × 10^6 L/mole. For the same compound, the “Human Plasma Anticoagulation 2x Clotting time APTT” value in the data set on Human Plasma [5] came to 80 ng/mL. In addition, the “Human Plasma Anticoagulation 2x Clotting time PT” value with Human Plasma [6] is listed as 170 ng/mL.
As to `CCS(=O)(=O)N[C@H](Cc1ccccc1)C(=O)N1CCC[C@H]1C(=O)NCCCCN=C(N)N.Cl` [Example 1, EtSO2 -D-Phe-Pro-Agm.HCl], in [4], the “% oral/i.v. activity (Rat)” value was 8%.
